What was measured:
off-target kinases = assay: KinaseProfiler full kinase panel (overall); assay type: biochemical; details: 10 μM; for activity against off-target kinases: full kinase panel; for selectivity for inhibiting TrkA versus other kinases in the panel: panel of about 230 kinases
Experimental: Two representative compounds (Example 2, 14) of the invention were tested for off-target kinase activity at a concentration of 10 μM by Millipore, Inc. in their KinaseProfiler™ service against all the kinases available in their full kinase panel. These compounds were run in duplicate at a concentration of ATP near the Km for each individual kinase according to Millipore's specifications. The results are shown in Table B. Data are reported as percent of control (POC) and are the average of the two replicates.
Such a drug profile would represent a safer approach to treating pain, inflammation, cancer and certain skin diseases than has been previously reported.

[1] = molecular target: His-tagged recombinant human TrkA (Homo sapiens (Human), UniProt P04629); assay: TrkA LanthaScreen Eu Kinase Binding Assay; details: averaged IC50, TrkA binding assay of Example A; read-out: TrkA Enzyme IC50
Experimental: TrkA binding activity was determined in a TrkA LanthaScreen™ Eu Kinase Binding Assay. 5 nM His-tagged recombinant human TrkA (6HIS tagged cytoplasmic domain from Invitrogen, Catalog No. PV3144) was incubated with 4 nM Alexa-Fluor® Tracer 236 (Invitrogen Cat. No. PV5592), 2 nM biotinylated anti-His (Invitrogen Cat. No. PV6090), and 2 nM europium-labeled Streptavidin (Invitrogen Cat. No. PV5899), in buffer (25 mM MOPS, pH 7.5, 5 mM MgCl2, 0.005% Triton X-100). Three fold serial dilutions of compounds of the invention in DMSO were added to a final percentage of 2% DMSO. After 60-minute incubation at 22° C., the reaction was measured using the EnVision mutlimode plate reader (PerkinElmer) via TR-FRET dual wavelength detection at […]. The percent of control was calculated using a ratiometric emission factor. The IC50 values were determined by fitting a four parameter model to the percent of control data.
Table A provides averaged IC50 values for compounds of the invention when tested in the assay of Example A, where A represents an averaged IC50 value <100 nM.

Chain of His-tagged recombinant human TrkA (P04629 440-796): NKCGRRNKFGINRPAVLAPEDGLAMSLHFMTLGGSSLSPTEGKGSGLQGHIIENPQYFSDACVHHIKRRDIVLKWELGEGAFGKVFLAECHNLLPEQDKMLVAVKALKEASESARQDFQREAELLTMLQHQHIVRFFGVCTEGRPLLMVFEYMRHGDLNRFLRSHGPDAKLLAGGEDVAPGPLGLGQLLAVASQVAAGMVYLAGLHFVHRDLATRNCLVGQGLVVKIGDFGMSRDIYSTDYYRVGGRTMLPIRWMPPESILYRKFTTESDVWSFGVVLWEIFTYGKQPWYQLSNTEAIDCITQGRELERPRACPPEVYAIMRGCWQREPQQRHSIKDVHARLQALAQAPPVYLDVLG

SMILES	activity against off-target kinases (off-target kinases)	selectivity for inhibiting TrkA versus other kinases in the panel (off-target kinases)	IC50 [1]
COCCN1C[C@@H](NC(=O)Nc2c(C)c(-c3ccnc(C)c3)nn2-c2ccccc2)[C@H](c2ccc(F)c(F)c2)C1 [Example 2, 1-((3S,4R)-4-(3,4-difluorophenyl)-1-(2-methoxyethyl)pyrrolidin-3-yl)-3-(4-methyl-3-(2-methylpyridin-4-yl)-1-phenyl-1H-pyrazol-5-yl)urea]	largely inactive	remarkable and unexpected selectivity	–
COCCN1C[C@@H](NC(=O)Nc2c(C)c(-c3cnc(C)nc3)nn2-c2ccccc2)[C@H](c2cc(F)cc(F)c2)C1 [Example 14, 1-((3S,4R)-4-(3,5-difluorophenyl)-1-(2-methoxyethyl)pyrrolidin-3-yl)-3-(4-methyl-3-(2-methylpyrimidin-5-yl)-1-phenyl-1H-pyrazol-5-yl)urea]	largely inactive	remarkable and unexpected selectivity	–

Further lines, results first:

activity against off-target kinases (off-target kinases)	selectivity for inhibiting TrkA versus other kinases in the panel (off-target kinases)	IC50 [1]	SMILES
–	–	< 100 nM	COCCN1C[C@@H](NC(=O)Nc2c(C)c(-c3ccc(=O)n(C)c3)nn2-c2ccccc2)[C@H](c2ccc(F)c(Cl)c2)C1 (relative stereo) [Example 22, 1-(trans-4-(3-chloro-4-fluorophenyl)-1-(2-methoxyethyl)pyrrolidin-3-yl)-3-(4-methyl-3-(1-methyl-6-oxo-1,6-di hydropyridin-3-yl)-1-phenyl-1H-pyrazol-5-yl)urea]
–	–	< 100 nM	COCCN1C[C@@H](NC(=O)Nc2c(C)c(-c3ccc(=O)n(C)c3)nn2-c2ccccc2)[C@H](c2cccc(Cl)c2)C1 (relative stereo) [Example 25, 1-(trans-4-(3-chlorophenyl)-1-(2-methoxyethyl)pyrrolidin-3-yl)-3-(4-methyl-3-(1-methyl-6-oxo-1,6-di hydropyridin-3-yl)-1-phenyl-1H-pyrazol-5-yl)urea]
–	–	< 100 nM	COCCN1C[C@@H](NC(=O)Nc2c(C)c(-c3ccc(=O)n(C)c3)nn2-c2ccccc2)[C@H](c2cc(F)cc(Cl)c2)C1 (relative stereo) [Example 24, 1-(trans-4-(3-chloro-5-fluorophenyl)-1-(2-methoxyethyl)pyrrolidin-3-yl)-3-(4-methyl-3-(1-methyl-6-oxo-1,6-di hydropyridin-3-yl)-1-phenyl-1H-pyrazol-5-yl)urea]
–	–	< 100 nM	COCCN1C[C@@H](NC(=O)Nc2c(C)c(-c3ccc(=O)n(C)c3)nn2-c2ccccc2)[C@H](c2ccc(Cl)c(F)c2)C1 (relative stereo) [Example 23, 1-(trans-4-(4-chloro-3-fluorophenyl)-1-(2-methoxyethyl)pyrrolidin-3-yl)-3-(4-methyl-3-(1-methyl-6-oxo-1,6-dihydropyridin-3-yl)-1-phenyl-1H-pyrazol-5-yl)urea]

From patent US10851080B2, “Methods of treatment using pyrrolidinyl urea, thiourea, guanidine and cyanoguanidine compounds” (Array BioPharma Inc., priority 2012, dated 2020)
